We go through ten compounds from ChEMBL document CHEMBL5331138, “Potent, Selective, and Membrane Permeable 2-Amino-4-Substituted Pyridine-Based Neuronal Nitric Oxide Synthase Inhibitors” (J Med Chem, 2023).

The structures appear in SMILES notation.

The term Ki denotes the equilibrium dissociation constant of an inhibitor or competing ligand from its target. The low end stands for a stronger hold on the target, the high end for a looser hold on the target.

For data set [1] the following is noted: human, microsomes.
The conditions of data set [2]: mouse, microsomes.
Data set [3] addresses T1, Nitric oxide synthase 3 (Homo sapiens, UniProt P29474).
T1 sequence (P29474 whole entry): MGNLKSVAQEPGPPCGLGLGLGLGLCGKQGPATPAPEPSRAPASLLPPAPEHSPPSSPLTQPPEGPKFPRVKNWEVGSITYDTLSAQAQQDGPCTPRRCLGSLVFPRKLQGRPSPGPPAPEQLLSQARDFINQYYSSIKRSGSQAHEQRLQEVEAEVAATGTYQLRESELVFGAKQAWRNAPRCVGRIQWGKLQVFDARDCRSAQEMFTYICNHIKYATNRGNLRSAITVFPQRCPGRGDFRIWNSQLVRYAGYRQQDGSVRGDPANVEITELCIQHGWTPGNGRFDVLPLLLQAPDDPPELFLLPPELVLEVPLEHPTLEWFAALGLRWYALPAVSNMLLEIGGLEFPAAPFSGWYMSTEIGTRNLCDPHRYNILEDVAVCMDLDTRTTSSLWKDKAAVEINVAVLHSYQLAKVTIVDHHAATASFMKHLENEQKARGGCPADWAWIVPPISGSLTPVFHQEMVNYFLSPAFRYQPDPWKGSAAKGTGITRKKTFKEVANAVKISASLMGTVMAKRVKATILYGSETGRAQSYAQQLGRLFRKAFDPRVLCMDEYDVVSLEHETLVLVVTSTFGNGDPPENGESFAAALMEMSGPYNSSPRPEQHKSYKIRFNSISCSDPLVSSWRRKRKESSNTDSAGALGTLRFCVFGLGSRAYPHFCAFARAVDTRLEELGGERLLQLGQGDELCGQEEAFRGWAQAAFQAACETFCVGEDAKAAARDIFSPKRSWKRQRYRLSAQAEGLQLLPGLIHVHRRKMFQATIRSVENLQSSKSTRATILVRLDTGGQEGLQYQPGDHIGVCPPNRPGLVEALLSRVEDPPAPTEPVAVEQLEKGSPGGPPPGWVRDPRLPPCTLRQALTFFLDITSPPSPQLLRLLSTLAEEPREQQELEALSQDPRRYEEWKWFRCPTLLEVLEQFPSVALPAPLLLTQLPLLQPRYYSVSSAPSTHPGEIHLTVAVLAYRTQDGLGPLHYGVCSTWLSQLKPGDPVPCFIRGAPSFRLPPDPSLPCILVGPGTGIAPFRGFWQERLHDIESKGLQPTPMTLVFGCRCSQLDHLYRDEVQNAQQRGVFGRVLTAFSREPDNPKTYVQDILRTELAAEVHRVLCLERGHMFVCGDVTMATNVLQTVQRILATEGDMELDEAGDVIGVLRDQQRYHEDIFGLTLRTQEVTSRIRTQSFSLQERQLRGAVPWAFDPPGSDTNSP
Nature of the data set: Inhibition of human eNOS expressed in Escherichia coli using human oxyhemoglobin by hemoglobin (Hb) NO capture assay.

For data set [4], the target named is Nitric oxide synthase 1 (Homo sapiens, UniProt P29475).
Sequence of Nitric oxide synthase 1 (Homo sapiens, UniProt P29475) (P29475 whole entry): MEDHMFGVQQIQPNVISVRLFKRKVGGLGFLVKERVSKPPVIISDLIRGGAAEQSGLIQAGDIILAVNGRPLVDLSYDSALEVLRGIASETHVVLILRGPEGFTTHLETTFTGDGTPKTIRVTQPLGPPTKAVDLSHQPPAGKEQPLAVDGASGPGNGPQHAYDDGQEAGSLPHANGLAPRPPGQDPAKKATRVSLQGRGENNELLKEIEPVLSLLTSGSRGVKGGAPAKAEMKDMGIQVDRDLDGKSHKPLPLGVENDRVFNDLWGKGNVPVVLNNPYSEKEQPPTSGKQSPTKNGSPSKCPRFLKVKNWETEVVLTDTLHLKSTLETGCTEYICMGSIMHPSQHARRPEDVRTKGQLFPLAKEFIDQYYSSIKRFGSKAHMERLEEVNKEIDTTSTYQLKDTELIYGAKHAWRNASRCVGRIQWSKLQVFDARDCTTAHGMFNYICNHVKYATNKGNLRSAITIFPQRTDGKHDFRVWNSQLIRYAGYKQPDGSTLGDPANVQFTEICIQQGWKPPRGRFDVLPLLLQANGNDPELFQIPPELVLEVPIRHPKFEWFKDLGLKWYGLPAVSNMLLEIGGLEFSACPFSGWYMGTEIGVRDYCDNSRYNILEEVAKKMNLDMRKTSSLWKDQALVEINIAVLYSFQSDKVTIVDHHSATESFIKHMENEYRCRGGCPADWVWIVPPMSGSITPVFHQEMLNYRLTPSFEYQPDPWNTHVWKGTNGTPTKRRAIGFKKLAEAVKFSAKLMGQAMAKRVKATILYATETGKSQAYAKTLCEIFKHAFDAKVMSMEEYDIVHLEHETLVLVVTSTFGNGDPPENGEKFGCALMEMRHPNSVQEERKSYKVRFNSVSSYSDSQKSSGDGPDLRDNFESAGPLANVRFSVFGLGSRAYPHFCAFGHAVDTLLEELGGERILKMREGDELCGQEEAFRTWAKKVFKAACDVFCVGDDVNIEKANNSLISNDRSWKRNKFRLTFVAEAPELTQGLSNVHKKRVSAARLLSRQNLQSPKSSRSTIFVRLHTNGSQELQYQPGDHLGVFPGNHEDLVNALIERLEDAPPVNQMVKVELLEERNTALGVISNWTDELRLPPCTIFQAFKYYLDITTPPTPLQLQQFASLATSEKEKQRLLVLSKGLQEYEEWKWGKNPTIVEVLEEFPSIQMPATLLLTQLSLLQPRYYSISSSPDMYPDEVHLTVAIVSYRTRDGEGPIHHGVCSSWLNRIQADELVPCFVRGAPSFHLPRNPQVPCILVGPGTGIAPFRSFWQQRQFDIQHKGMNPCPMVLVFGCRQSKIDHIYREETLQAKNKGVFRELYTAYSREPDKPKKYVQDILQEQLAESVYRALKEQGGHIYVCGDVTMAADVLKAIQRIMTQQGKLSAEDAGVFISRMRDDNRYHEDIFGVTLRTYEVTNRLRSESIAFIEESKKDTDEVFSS
Description: Inhibition of human nNOS expressed in Escherichia coli using human oxyhemoglobin by hemoglobin (Hb) NO capture assay
The target in data set [5] is Nitric oxide synthase, inducible (Homo sapiens, UniProt P35228).
Sequence of Nitric oxide synthase, inducible (P35228 whole entry): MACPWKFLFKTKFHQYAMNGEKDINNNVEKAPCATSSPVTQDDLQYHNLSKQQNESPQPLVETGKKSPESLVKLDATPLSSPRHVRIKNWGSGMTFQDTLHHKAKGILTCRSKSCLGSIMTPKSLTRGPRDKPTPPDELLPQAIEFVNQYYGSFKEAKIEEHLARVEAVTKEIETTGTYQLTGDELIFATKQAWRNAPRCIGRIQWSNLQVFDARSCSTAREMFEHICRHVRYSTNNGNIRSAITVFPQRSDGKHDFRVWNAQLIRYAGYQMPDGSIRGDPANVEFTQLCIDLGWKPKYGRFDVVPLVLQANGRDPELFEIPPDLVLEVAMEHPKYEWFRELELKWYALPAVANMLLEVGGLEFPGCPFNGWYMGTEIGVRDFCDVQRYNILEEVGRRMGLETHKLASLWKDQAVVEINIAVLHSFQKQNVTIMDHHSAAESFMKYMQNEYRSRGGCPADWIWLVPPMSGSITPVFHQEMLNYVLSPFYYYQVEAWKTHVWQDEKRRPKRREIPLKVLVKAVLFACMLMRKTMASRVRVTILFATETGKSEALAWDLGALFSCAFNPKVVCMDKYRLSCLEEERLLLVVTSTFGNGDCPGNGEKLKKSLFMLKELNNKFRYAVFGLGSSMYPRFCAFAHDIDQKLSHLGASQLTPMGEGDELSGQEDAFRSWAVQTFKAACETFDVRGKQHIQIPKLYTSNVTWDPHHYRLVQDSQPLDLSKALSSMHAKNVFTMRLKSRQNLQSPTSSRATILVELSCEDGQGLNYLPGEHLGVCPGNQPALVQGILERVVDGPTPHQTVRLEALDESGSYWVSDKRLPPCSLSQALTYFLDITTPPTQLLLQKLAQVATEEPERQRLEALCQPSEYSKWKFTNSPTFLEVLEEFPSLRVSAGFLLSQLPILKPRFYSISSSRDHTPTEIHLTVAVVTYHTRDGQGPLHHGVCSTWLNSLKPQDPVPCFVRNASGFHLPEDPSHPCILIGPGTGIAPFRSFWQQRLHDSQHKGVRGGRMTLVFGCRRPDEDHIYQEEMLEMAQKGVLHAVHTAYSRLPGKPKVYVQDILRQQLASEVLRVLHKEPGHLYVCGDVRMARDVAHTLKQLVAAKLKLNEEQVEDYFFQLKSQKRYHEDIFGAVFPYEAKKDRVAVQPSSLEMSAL
Description: Inhibition of human iNOS expressed in Escherichia coli using human oxyhemoglobin by hemoglobin (Hb) NO capture assay
Data set [6] addresses Nitric oxide synthase 1 (Rattus norvegicus, UniProt P29476).
Description: Inhibition of rat nNOS expressed in Escherichia coli using human oxyhemoglobin by hemoglobin (Hb) NO capture assay

Sequence of Nitric oxide synthase 1 (Rattus norvegicus, UniProt P29476) (P29476 whole entry): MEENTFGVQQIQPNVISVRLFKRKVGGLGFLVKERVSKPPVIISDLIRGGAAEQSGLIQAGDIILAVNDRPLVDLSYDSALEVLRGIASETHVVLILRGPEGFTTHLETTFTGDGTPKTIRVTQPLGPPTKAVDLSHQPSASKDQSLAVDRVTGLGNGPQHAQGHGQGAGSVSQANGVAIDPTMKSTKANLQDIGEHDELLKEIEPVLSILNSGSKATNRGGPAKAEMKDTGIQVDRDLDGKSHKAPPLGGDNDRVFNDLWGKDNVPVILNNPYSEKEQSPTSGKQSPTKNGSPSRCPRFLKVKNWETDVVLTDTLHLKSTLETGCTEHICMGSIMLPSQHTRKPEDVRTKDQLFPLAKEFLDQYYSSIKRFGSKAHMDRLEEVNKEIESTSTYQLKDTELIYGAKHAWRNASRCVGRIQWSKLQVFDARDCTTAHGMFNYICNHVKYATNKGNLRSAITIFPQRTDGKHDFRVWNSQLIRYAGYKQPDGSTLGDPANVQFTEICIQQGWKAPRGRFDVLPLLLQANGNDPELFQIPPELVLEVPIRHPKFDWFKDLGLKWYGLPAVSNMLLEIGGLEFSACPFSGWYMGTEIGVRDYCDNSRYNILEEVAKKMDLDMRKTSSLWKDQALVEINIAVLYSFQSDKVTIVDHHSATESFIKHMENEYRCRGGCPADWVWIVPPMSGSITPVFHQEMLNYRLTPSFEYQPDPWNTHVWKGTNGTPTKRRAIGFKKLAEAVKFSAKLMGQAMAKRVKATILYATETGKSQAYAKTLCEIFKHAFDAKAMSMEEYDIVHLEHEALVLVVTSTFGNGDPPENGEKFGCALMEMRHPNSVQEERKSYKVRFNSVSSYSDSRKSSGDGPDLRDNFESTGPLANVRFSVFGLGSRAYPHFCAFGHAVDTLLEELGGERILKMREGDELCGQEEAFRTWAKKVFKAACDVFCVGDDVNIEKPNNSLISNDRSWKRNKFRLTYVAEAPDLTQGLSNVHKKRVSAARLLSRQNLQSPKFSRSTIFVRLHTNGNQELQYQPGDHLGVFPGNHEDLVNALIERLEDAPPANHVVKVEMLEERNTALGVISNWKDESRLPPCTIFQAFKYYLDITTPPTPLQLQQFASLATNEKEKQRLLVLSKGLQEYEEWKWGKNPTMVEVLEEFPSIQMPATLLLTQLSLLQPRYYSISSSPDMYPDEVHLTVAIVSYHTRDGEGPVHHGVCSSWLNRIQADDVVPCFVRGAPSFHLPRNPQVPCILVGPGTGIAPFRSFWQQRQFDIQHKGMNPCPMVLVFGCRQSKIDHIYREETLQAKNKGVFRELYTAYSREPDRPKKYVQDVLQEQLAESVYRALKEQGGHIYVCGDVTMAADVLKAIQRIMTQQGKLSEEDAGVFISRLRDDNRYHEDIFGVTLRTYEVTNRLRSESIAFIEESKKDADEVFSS

`Cc1cc(N)nc(CCc2cc(CC[C@H]3CCN3C)cc(F)c2F)c1.Cl.Cl`: the t1/2 is on record as > 60 min in data set [1] and 16 min in data set [2].

As to `CCN(CC)CCc1cc(F)c(F)c(CCc2cc(C)cc(N)n2)c1.Cl.Cl`, affinity in data set [3] was put at a Ki of 46.4 µM.

With `Cc1cc(N)nc(/C=C/c2cc(CCN(C)C)cc(F)c2F)c1`, the Ki was 0.048 µM in data set [4], 14.3 µM in data set [3] and 11.9 µM in data set [5].

In the case of `Cc1cc(N)nc(CCc2cc(CCN)cc(F)c2F)c1.Cl.Cl`, the Ki came to 77.2 µM in data set [3] and 1.72 µM in data set [5].

In the case of `Cc1cc(N)nc(CCc2cc(CCN(C)C)cc(F)c2F)c1.Cl.Cl`, the t1/2 is recorded as > 60 min in data set [1] and 29 min in data set [2].

`CN(C)CCc1cc(F)c(F)c(CCc2cc(C(F)(F)F)cc(N)n2)c1.Cl.Cl` displayed a Ki in data set [3] of 68.3 µM.

As for `Cc1cc(N)nc(C#Cc2cc(CCN(C)C)cc(F)c2F)c1`, the Ki in data set [4] stood at 0.328 µM; in data set [3], 18.7 µM; in data set [5] it was 48.8 µM.

As to `Cc1cc(N)nc(C#Cc2cc(CN(C)C)cc(F)c2F)c1.Cl.Cl`, the values for the Ki in data set [4], in data set [3] and in data set [5] were 0.319 µM, 7.68 µM and 88.7 µM, respectively.

In data set [3], `Cc1cc(N)nc(CCc2cc(CCN3CCN(C)CC3)cc(F)c2F)c1` displayed a Ki of 12.4 µM. In other words, the double-digit micromolar range.

Turning to `CN(C)CCc1cc(F)c(F)c(CCc2cccc(N)n2)c1`, the results for the Ki in data set [6], in data set [4] and in data set [3] were 1.11 µM, 1.64 µM and 61.4 µM, respectively.
